{"source": "patent US20020169296A1", "about": "“Linked, sequence-specific DNA-binding molecules” (priority 2000, published 2002)", "key": {"[1]": {"test_system": "GAGA factor (GAF) function", "test": "Feeding to developing Drosophila melanogaster of brown-dominant genotype", "type": "in vivo", "conditions": "fed to developing flies"}, "[2]": {"target": "two GAGAA repeats (GAF31 probe)", "test": "DNase I footprinting on GAGAA repeats", "conditions": "read-out: apparent binding constant", "from_the_text": "In the framework of a search for molecular tools to study PEV, polyamide that targets the abundant satellite V composed of GAGAA repeats (Lohe et al., 1993) was synthesised. Designing molecules that would bind to this repeat motif represented a challenge since with current knowledge, targeting of sequences containing 5′-GNG-3′ or 5′-GA-3′ with drugs composed of pyrrole and imidazole is difficult. However, successful targeting to sequences containing 5′-GTG-3′ was previously achieved using an Im-β-Im motif where β-alanine replaces the function of pyrrole (Turner et al., 1998). Since β-alanine, like pyrroles, is degenerate for A.T and T.A base pairs, we designed a compound based on these observations, to recognize a sequence composed of two tandem GAGAA repeats by systematic placement of β-alanine at the N-terminal neighbor of imidazole. The binding affinity and specificity of this compound, termed P31 (=Im-β-Im-Py-β-Im-β-Im-β-Dp), were evaluated by DNAse I footprinting. For this purpose, two different probes were examined, both containing GAGAA repeats. […] The apparent binding constant of P31 for this sequence was estimated at 0.25 nM. At higher concentrations, protection of two mismatch binding sites was observed. One of these sites contains an AAGTG motif (FIG. 5A).\nGAF31 is composed of the oligonucleotides:\n(§1) All reactions were performed in a total volume of 40 μl. […]"}, "[3]": {"test_system": "CACAA repeats (Brown I probe)", "test": "DNase I footprinting on CACAA repeats", "type": "binding", "from_the_text": "A drawback of this binding model, as opposed to conventional 2:1 drug to DNA complexes, is that P31 is expected to bind degenerate GC and CG base pairs, albeit with different affinity. The consensus sequence can thus be defined as […], where S stands for a G or C and W for A or T. To evaluate binding of P31 to CACAA repeats, we used a second probe that contains two of these repeats as well as five tandem GAGAA repeats. […] Again, it is observed than this molecule binds as a 1:1 drug to DNA complex in an orientation as indicated by arrowheads (FIG. 5A). We propose that special structural features of AT-tracts and GAGAA repeats might favor 1:1 DNA to drug complexes (see Discussion).\nAll reactions were performed in a total volume of 40 μl. A polyamide stock solution or buffer (for reference lanes) was added to an assay buffer containing 20 kcpm radiolabeled DNA, affording final concentrations of 10 mM Tris-HCl (pH 7.4), 10 mM KCl, 10 mM MgCl, 5 mM CaCl2, 0.5 mM EDTA, 0.5 mM EGTA, 1 mM DTT and 0.1% digitonine. The solutions were allowed to equilibrate for at least 2 h at room temperature. Footprinting reactions were initiated by the addition of 2 μl of a DNase stock solution (containing −100 pg DNase I in buffer) and allowed to proceed for 2 min at room temperature. The reactions were stopped by addition of 10 μl of a solution containing 1.25 M NaCl, 100 mM EDTA. […]"}, "[4]": {"test_system": "GAGA factor (GAF) binding site from the Ubx promoter (GAF31 probe)", "test": "DNase I footprinting on Ubx GAF binding site", "from_the_text": "Panel A: DNAse I footprinting experiment with P31 and affinity cleavage with P31E are shown on GAF31 and the Brown I probes. The GAF31 and Brown I probes contains a (AAGAG)2 motif and GAGA factor (GAF) binding site from the Ubx promoter (Biggin et al., 1988). […] The Brown I oligo (a tandem repeat) includes an (AAGAG)5 binding site and a degenerate P31 binding site (AACAC)2 as indicated. P31 concentrations used (nM) are indicated. […] Binding orientations of P31E on these probes are indicated by arrowheads on the brackets pointing towards the N-terminus of the molecule. The letter G refers the G nucleotide cleavage reaction. Panel B: DNAse I footprinting experiment with purified GAGA factor (GAF) on the GAF31 probe. Note that GAF binds both the (AAGAG)2 motif and the binding site from the Ubx promoter.\nA footprint experiment was therefore carried out with this protein. The DNA probe (GAF31) used for this purpose contains besides the (AAGAG)2 motif (the target of P31) a typical promoter proximal GAF binding site derived from the Ubx gene (Biggin et al., 1988). This Ubx site contains the pentameric consensus sequence […] of GAF (Omichinski et al., 1997).\nas §1"}, "[5]": {"test_system": "Drosophila satellite III chromatin (topoisomerase II cleavage)", "test": "Topoisomerase II cleavage in satellite III of Kc nuclei in Xenopus egg extracts with VM26", "type": "biochemical"}}}
{"compound": "CN(C)CCCNC(=O)CCNC(=O)c1nc(NC(=O)CCNC(=O)c2nc(NC(=O)CCNC(=O)c3cc(NC(=O)c4nc(NC(=O)CCNC(=O)c5nccn5C)cn4C)cn3C)cn2C)cn1C", "note": "[Compound P31, Im-β-Im-Py-β-Im-β-Im-β-Dp]", "values": [{"measurement": "effect on GAGA factor function in flies", "setting": "[1]", "result": "interferes with the function of the GAGA factor (GAF)"}, {"measurement": "Kd", "setting": "[2]", "result": 0.25, "unit": "nM"}, {"measurement": "affinity for CACAA repeats relative to GAGAA repeats", "setting": "[3]", "result": "approximately five fold lower affinity"}, {"measurement": "binding to Ubx GAF binding site", "setting": "[4]", "result": "does not bind"}, {"measurement": "concentration giving massive cleavage stimulation", "setting": "[5]; P31 at 500 nM comparable to P9 at 62 nM (lowest tested)", "result": 500, "unit": "nM"}, {"measurement": "stimulation of topoisomerase II cleavage in satellite III", "setting": "[5]; up to a concentration of 200 nM", "result": "no significant reinforcement of the pattern"}]}
